The results in this text go back to PMC7714403 (JCI Insight, 2020).

The structures appear in SMILES notation.

The IC50 is the midpoint of a concentration-inhibition curve.

Assay [1] concerns Ba/F3 cells GFP+IL3. As to the kind of experiment: MTT viability assay. It is filed as cell-based. The settings on record: Mus musculus, BaF3; Ba/F3 GFP+IL3; MTT, 72 hours; read-out: IC50 viability. As to the method:
(§1) Drug treatments were carried out for 72 hours. Details are provided in the Supplemental Methods.
In general terms: Tetrazolium assays rely on reduction of a dye to a coloured formazan, in cell work by metabolically active cells.

The test system of assay [2] is Ba/F3 cells expressing FLT3 D835Y. As to the kind of experiment: MTT viability assay. In kind it is cell-based. The settings on record: Mus musculus, BaF3; Ba/F3 FLT3 D835Y; MTT, 72 hours; read-out: IC50 viability. As to the method: as §1
The subject of assay [3] is Ba/F3 cells expressing FLT3 ITD/D835H. As to the kind of experiment: MTT viability assay. In kind it is cell-based. The settings on record: Mus musculus, BaF3; Ba/F3 FLT3 ITD/D835H; MTT, 72 hours; read-out: IC50 viability. As to the method: as §1
In assay [4] the test system is Ba/F3 cells expressing FLT3-ITD/F691L. As to the kind of experiment: MTT viability assay. It is filed as cell-based. The settings on record: Mus musculus, BaF3, 72 hours. As to the method: as §1
The test system of assay [5] is Ba/F3 cells expressing FLT3-ITD. As to the kind of experiment: MTT viability assay. It is filed as cell-based. The settings on record: Mus musculus, BaF3; Ba/F3 FLT3 ITD; MTT, 72 hours; read-out: IC50 viability. As to the method:
as §1

For assay [6], the system named is MOLM13 cells. As to the kind of experiment: MTT viability assay. In kind it is cell-based. The settings on record: Homo sapiens, MOLM-13; MOLM13, FLT3-ITD; MTT, 72 hours; read-out: IC50 viability. As to the method:
as §1

Assay [7] relates to MV4-11 cells. As to the kind of experiment: MTT viability assay. In kind it is cell-based. The settings on record: Homo sapiens; MV4-11, FLT3-ITD; MTT, 72 hours; read-out: IC50 viability. As to the method: as §1
The test system of assay [8] is primary FLT3-ITD/IDH2-R140Q murine leukemia cells. As to the kind of experiment: CellTiterGlo viability assay, ex vivo. The settings on record: Mus musculus, 72 hours. In kind it is cell-based. As to the method: as §1
(§2) Cell viability of primary samples […]
For murine or human primary AML cells, 100,000 cells/well were plated in a 96-well plate and treated with increasing concentrations of drug. Cell viability, via trypan blue, was measured every 24 hours. If the viability fell below 50% or at 72 hours of treatment, whichever came earlier, cell viability of each plate was measured via

Assay [9] relates to primary FLT3-ITD/MLL-PTD murine leukemia cells. As to the kind of experiment: CellTiterGlo viability assay, ex vivo. It is filed as cell-based. The settings on record: Mus musculus, 72 hours. As to the method: as §1, §2
For murine or human primary AML cells, 100,000 cells/well were plated in a 96-well plate and treated with increasing concentrations of drug. Cell viability, via trypan blue, was measured every 24 hours. If the viability fell below 50% or at 72 hours of treatment, whichever came earlier, cell viability of each plate was measured via CellTiter-Glo. Primary human AML cells were obtained from the OSUCCC Leukemia Tissue Bank Shared […]

For assay [10], the system named is MOLM13 cells. As to the kind of experiment: MOLM13 viability ± coculture with HS5-GFP MSCs (MTT). It is filed as cell-based. The settings on record: Homo sapiens, read-out: IC50 viability. As to the method:
Drug treatments were carried out for 72 hours. Details are provided in the Supplemental Methods. […]
HS5-GFP human bone marrow stromal cells were plated and cultured for 72 hours to near confluence.
MOLM13 cells were then seeded onto HS5-GFP cells to establish a co-culture. Twenty-four hours later, cells
were treated with increasing concentrations of drug for an additional 72 hours. MOLM13 and HS5-GFP cells
were then separated and MTT assay s were performed for cell viability assessment of each cell population. […]

For assay [11], the system named is primary FLT3-ITD/IDH2-R140Q murine leukemia cells. As to the kind of experiment: CFU assay. In kind it is cell-based, mouse. The settings on record: for Colony formation: 20 nM and 50 nM. As to the method: (§3) For human primary CFU assays, cells were cultured in MethoCult H4035 Optimum without EPO (Stemcell Technologies). For mouse primary CFU assays, cells were directly cultured in MethoCult M3231 (Stemcell Technologies) supplemented with 45 ng/mL of murine IL-6 (mIL-6), mIL-3, and mSCF. Both human and mouse primary cells 10,000 cells were plated in duplicate for each drug concentration. For cell line CFU assays, MV4-11 cells were treated with drugs in the presence of 20 ng/mL IL-3, GM-CSF, or FGF2. Cells were plated in MethoCult H4230 (Stemcell Technologies) in duplicates at 250 cells/plate. […] Colonies were identified as clusters containing 40 or more cells. For CFU assays using human primary CD34^+ cells, umbilical cord blood was obtained from the OSU Comprehensive Cancer Center (CCC) Leukemia Tissue Bank Shared Resource, and mononuclear cells were isolated by using density gradient centrifugation. CD34^+ cells were purified using the CD34 UltraPure MicroBead Kit (Miltenyi Biotec) according to the manufacturer’s instructions. CFU assay with CD34^+ cells was performed as described above, and the total number of colonies were counted after 7–10 days.

Assay [12] relates to primary FLT3-ITD/MLL-PTD murine leukemia cells. As to the kind of experiment: CFU assay. In kind it is cell-based, mouse. The settings on record: 20 nM and 50 nM. As to the method: as §3
The test system of assay [13] is MOLM13 and MOLM13 NRAS G12D cells. As to the kind of experiment: Cell growth of inducible MOLM13 NRAS G12D cells. It is filed as cell-based, human. The settings on record: 15 nM, doxycycline induction. As to the method: with DAPI in 0.1% Triton-X (ThermoFisher Scientific) PBS for 30 minutes at room temperature and protected from light. The DNA content was determined using a BD LSR II flow cytometer. The cell cycle distribution was […]
Cells that grow out of the CFU assays were washed with PBS twice to remove MethoCult. 100,000 cells were spun down on the slides using cytology funnels (Fisherbrand) in a cytocentrifuge at 600 rpm for 5 minutes.
Slides were then air dried overnight and stained with Hema 3 Stain Set (Thermo Fisher) according to manufacturer’s instructions. Images of the slides were taken at the Campus Microscopy & Imaging Facility Shared Resources here at OSUCCC using the light microscopy Zeiss Axioskop system.
Inducible MOLM13 NRAS G12D Cells
NRAS cDNA was cloned into pLVX -TetOne-Puro vector (Takara Bio USA). Site -directed mutagenesis to generate G12D mutation was carried out using the QuikChange II XL Site-Directed Mutagenesis Kit (Aligent) .
Mutagenesis primers were designed using the QuikChange Primer Design program and synthesized by Integrated DNA Technologies (IDT). Lentiviral production was carried out using the Lenti-X Packaging Single Shots (Takara Bio USA) according to manufactures protocol. Viral supernatant was then concentrated using PEG-it virus precipitation solution (System Biosciences). […]
Cells were counted every 2-3 days via Trypan […]

Setting [14] is: MOLM-13, MOLM13 + HS5-GFP co-culture.
[15] abbreviates: MOLM-13, MOLM13 alone (co-culture experiment).

Regarding `CCc1nc(C(N)=O)c(Nc2ccc(N3CCC(N4CCN(C)CC4)CC3)c(OC)c2)nc1NC1CCOCC1` [Gilteritinib, gilteritinib], the IC50 was determined as 972 nM in [1]; 22 nM in assay [2]; 20 nM in [3]; 193 nM in assay [4]; 5.4 nM in assay [5]; 17 nM in assay [6]. Also, the 50% inhibitory concentration (IC50) in assay [7] was found to be 8 nM; in [8], 2600 nM; in [9], 1550 nM; in assay [10] (setting [14]), 84 nM; in assay [10] (setting [15]), 17 nM. For the same compound, the Colony formation entry is given as “modest activity” in assay [11] and “no activity” in assay [12]. In addition, in assay [13], the Cell growth result was “resistant phenotype”.
As to `CN1CCN(Cc2ccc(Nc3ncc(Cl)c(Nc4ccccc4S(=O)(=O)N(C)C)n3)cc2)CC1` [TP-0903], the 50% inhibitory concentration (IC50) was 47 nM in [1]; 22 nM in [2]; 16 nM in [3]; 16 nM in [4]; 15 nM in assay [5]; 21 nM in assay [6]. For the same compound, the half-inhibitory concentration (IC50) in assay [7] was found to be 17 nM; in assay [8], 300 nM; in assay [9], 400 nM; in assay [10] (setting [14]), 53 nM; in [10] (setting [15]), 31 nM. Moreover, the Colony formation result in [11] and in [12] was “inhibited colony formation” throughout. The compound further yielded a Colonies in assay [11] (50nM, 7 day CFU assay) of 0 colonies. The Cell growth result in assay [13] is “complete loss of viable cells”.
